Results from patent US12721823B2, “Methods and compositions for treatment of low circulating testosterone conditions” (University of Florida Research Foundation, Inc., priority 2021, dated 2026).

What was measured:
Sprague-Dawley rats [1] = assay: Acute serum corticosterone 1 h after last sevoflurane exposure (ELISA); format: in vivo, rat; conditions: sevoflurane 3 h on P56, P58, P60, 1 h after last exposure, vs control
Method: Male and female rats in Generation 1 (G1) underwent anesthesia on postnatal days 56, 58 and 60. During this period, rats were held in a temperature-controlled chamber (+37° C.) with a continuous supply of 30% oxygen in air (1.5 L/min) during anesthesia-6% sevoflurane for 3 min for anesthesia induction and 2.1% sevoflurane for 177 min for anesthesia maintenance (the Sevoflurane group). Gas monitoring was performed using a calibrated Datex side stream analyzer (Datex-Ohmeda, Helsinki, Finland), which samples from the animal chamber interior. Rats in the G1 control group (Control) were not subjected to anesthesia. A subset of the rats in the G1 Control and Sevoflurane groups was sacrificed 1 h after the last exposure to sevoflurane (or equivalent timepoint in the Control group) to collect blood and brain tissue samples. FIG. 1 provides a schematic of experimental design. The remaining Control and Sevoflurane G1 male and female rats were mated on P85 to produce offspring (generation 2, G2). […] Serum corticosterone was measured using commercial ELISA kits (Cayman Chemical Company, Ann Arbor, MI, USA) according to the manufacturer's instructions. […] (FIGS. 2C-2F) Representative confocal images and quantitative analysis of the KCC2 immunoreactivity in the paraventricular nucleus (PVN) of the hypothalamus of the control and sevoflurane-exposed male (FIGS. 2C, 2E) and female (FIGS. 2D, 2F) rats. […]

Sprague-Dawley rats [2] = assay: Serum FSH, LH, testosterone (Tn), estradiol (E2) by ELISA and testis weight; format: in vivo, rat
Description: Sixty-four G1 rats (32 control and 32 sevoflurane exposed) and 122 G2 rats, which were not exposed to sevoflurane anesthesia and were subjected to animal facility rearing only, were studied. The G1 rats were sequentially evaluated in the EPM starting on ~P125, PPI of the acoustic startle response on ~P135 and MWM starting ~on P145 (FIG. 1). One half of these animals were sacrificed on ≥P160 to collect trunk blood, brain and testis and ovarian tissues for further analyses. The rest of these animals were physically restrained for 30 min on ≥P160 to measure corticosterone responses, followed by collection of tissue samples (as above) for further analyses. The G2 rats were evaluated in the EPM starting on P60 and PPI of startle on P70 (FIG. 1). One half of these animals were sacrificed on ≥P95 to collect trunk blood and brain tissue samples for further analyses, and the rest of these animals were tested for the corticosterone responses to physical restraint for 30 min on ≥P95 before collecting the trunk blood and brain tissue samples. After decapitation, the trunk blood samples were collected and centrifuged at 4° C., 1000 g for 15 min, and then kept at -80° C. for hormone assays. The brain was removed from the skull onto ice pads. The hypothalamus was isolated by making an anterior cut at the level of the optic chiasm, a posterior coronal section anterior to the mammillary bodies, two sagittal cuts parallel to the lateral ventricles and a dorsal horizontal cut at the level of the anterior commissure, as described elsewhere.^19 The hippocampus was isolated from the respective blocks. All tissue samples were placed in vials filled with RNAlater solution (Invitrogen, Carlsbad, CA) and then stored at -80° C. Testis tissue was removed and washed with 0.9% saline before weighing. Sperm were isolated from the caudal epididymis of adult males into PBS with 1% BSA at 37° C. using a swim-up assay. After settling for 30 min, sperm-containing supernatant was centrifuged for 5 min at 4000 rpm. Sperm pellets were stored at -80° C. After separation from the adipose tissues, ovaries were stored at -80° C. Hormone analyses in serum samples isolated from G1 and G2 rats were performed using commercially available kits according to the manufacturer's instructions. Serum concentrations of FSH (CSB-E06869r) and LH (CSB-E12654r) were quantified using ELISA kits (CUSABIO TECHNOLOGY LLC, Houston, TX, USA). Serum Tn and E2 concentrations were measured using ELISA kits (582701, Cayman Chemical Company, Ann Arbor, MI, USA and E[…]-100, Calbiotech, Spring Valley, CA, USA, respectively).

[3] = G2 males, parental exposure to sevoflurane

## FCOC(C(F)(F)F)C(F)(F)F [sevoflurane, 1,1,1,3,3,3-hexafluoro-2-(fluoromethoxy)propane]
Sprague-Dawley rats [1]; G1 female rats
  serum levels of corticosterone: significantly increased
Sprague-Dawley rats [1]; G1 male rats
  serum levels of corticosterone: significantly increased
Sprague-Dawley rats [2]; G1 female rats, vs control
  serum levels of E2 (estradiol): not different
  serum levels of FSH: no significant treatment effects
  serum levels of LH: no significant treatment effects
  serum levels of Tn (testosterone): not different
Sprague-Dawley rats [2]; G1 male rats, more than 3 months after sevoflurane exposure, vs control
  serum levels of Tn (testosterone): significantly increased
Sprague-Dawley rats [2]; G1 male rats, vs control
  serum levels of FSH: not different
  serum levels of LH: increased
  testis weight: significantly reduced
Sprague-Dawley rats [2]; [3]
  serum levels of Tn: no significant treatment effects
  testis weight: no significant treatment effects
